Measurements as given in ChEMBL document CHEMBL1147037 (J Biol Chem, 2007).

Legend:
Mu-type opioid receptor [1] = molecular target: T1, Mu-type opioid receptor (Homo sapiens, UniProt P35372); conditions: HEK293-A, at 100 µM
Mu-type opioid receptor [2] = molecular target: T1, Mu-type opioid receptor; experiment: Displacement of [3H]naloxone from human mu poioid receptor expressed in HEK293 cells; assay type: cell-based
Mu-type opioid receptor [3] = molecular target: T1, Mu-type opioid receptor; experiment: Activation of human mu opioid receptor expressed in HEK293a cells coexpressing YFP-labelled alphai1 and CFP-labelled beta-1-gamma-2 Gi subunits assessed as decrease in fluorescence resonance energy transfer signal at 10 uM relative to morphine; assay type: cell-based; conditions: HEK293-A
Mu-type opioid receptor [4] = molecular target: T1, Mu-type opioid receptor; experiment: Activation of human mu opioid receptor expressed in HEK293a cells co-expressing YFP-labelled alphai1 and CFP-labelled beta1gamma2 Gi subunits assessed as Gi protein activation by fluorescence resonance energy transfer; assay type: cell-based, HEK293-A

T1 sequence (P35372 whole entry): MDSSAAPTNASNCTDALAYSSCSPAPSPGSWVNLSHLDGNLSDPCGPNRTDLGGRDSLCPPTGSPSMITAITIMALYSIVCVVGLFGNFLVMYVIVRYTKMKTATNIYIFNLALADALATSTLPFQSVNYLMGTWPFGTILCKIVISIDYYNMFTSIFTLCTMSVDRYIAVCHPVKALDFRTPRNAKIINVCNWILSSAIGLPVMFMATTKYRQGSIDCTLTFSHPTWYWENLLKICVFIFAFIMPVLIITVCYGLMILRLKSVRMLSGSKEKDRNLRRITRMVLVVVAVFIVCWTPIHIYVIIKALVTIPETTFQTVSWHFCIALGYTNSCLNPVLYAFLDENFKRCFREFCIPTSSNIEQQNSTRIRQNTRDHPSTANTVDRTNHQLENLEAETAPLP

SMILES	Emax (Mu-type opioid receptor [1]) [%]	Ki (Mu-type opioid receptor [2]) [nM]	Emax (Mu-type opioid receptor [3]) [%]	EC50 (Mu-type opioid receptor [4]) [nM]
COC1=C[C@]23CCN(C)[C@H](Cc4ccc(OC)c(O)c42)C3=C[C@@H]1O	17.7			
COc1ccc(C[C@@H]2c3cc(O)c(OC)cc3CCN2C)cc1O	15.9			
COc1ccc2c3c1O[C@H]1C(=O)C=C[C@H]4[C@@H](C2)N(C)CC[C@]314 [CODEINONE]		459	100	294
CN1CC[C@]23c4c5ccc(O)c4O[C@H]2C(=O)C=C[C@H]3[C@H]1C5 [MORPHINONE]		146	100	28
COC1=CC=C2[C@H]3Cc4ccc(O)c5c4[C@@]2(CCN3C)[C@H]1O5 [ORIPAVINE]		286	100	277
COC1=C[C@]23CCN(C)[C@H](Cc4ccc(OC)c(O)c42)C3=CC1=O [SALUTARIDINE]	54.4	34600		32500
COC1=CC=C2[C@H]3Cc4ccc(OC)c5c4[C@@]2(CCN3C)[C@H]1O5 [THEBAINE]	76.3	7400		5600
